For eleven compounds, IC50 and inhibition results are on record in patent US5686454A, “Camphorcarbonyl” (Merck & Co., Inc., priority 1996, dated 1997).

The target of one test is T1, uterine OT receptors (Rattus norvegicus, UniProt P70536).
T1 construct: crude membrane preparation of uteri; from tissue; host or cells: uterus of DES-treated rats, crude membranes
T1 sequence (P70536 1-388): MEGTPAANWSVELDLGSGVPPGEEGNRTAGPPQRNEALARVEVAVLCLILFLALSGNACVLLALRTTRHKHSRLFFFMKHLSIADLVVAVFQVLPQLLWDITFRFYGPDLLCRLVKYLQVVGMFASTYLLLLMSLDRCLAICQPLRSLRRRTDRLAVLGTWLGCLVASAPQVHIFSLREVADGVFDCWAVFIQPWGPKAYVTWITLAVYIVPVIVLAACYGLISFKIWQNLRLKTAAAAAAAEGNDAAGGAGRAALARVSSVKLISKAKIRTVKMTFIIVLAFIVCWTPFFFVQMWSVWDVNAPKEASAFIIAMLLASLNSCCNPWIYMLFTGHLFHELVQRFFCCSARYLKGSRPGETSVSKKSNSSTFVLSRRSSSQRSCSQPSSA
Kind of test: Radioligand binding: competition of [^3 H]oxytocin binding to rat uterine membranes. The conditions noted are these: 1 nM [^3 H]OT, rat uterus membranes, 60 minutes, 22° C., pH 7.4; read-out: IC50. The source says:
RADIOGLIGAND BINDING ASSAYS
The high affinity binding of [^3 H]
For `Cc1ccccc1N1CCN(S(=O)(=O)CC23CCC(C=C2C(=O)NCCc2c[nH]cn2)C3(C)C)CC1` (centres unmarked) [Example 58, 1-((7,7-Dimethyl-2-(4-imidazolyl)ethylaminocarbonyl-bicyclo(2.2.1)hept-2-en-1-yl)methanesulfonyl)-4-(2-methylphenyl)piperazine], the IC50 amounted to 120 nM.
The same measure, in the same setting: the same measure for `COC(=O)C1CC2CCC1(CS(=O)(=O)N1CCN(c3ccccc3C)CC1)C2(C)C` (stereo not drawn) [Example 59, 1-((7,7-Dimethyl-2-endo-methoxycarbonyl-bicyclo-(2.2.1)heptan-1-yl)methanesulfonyl)-4-(2-methyl-phenyl)piperazine]: 260 nM; for `Cc1ccccc1N1CCN(S(=O)(=O)CC23CCC(CC2C(=O)NCCc2c[nH]cn2)C3(C)C)CC1` (stereo not drawn) [Example 61, 1-((7,7-Dimethyl-2-endo-(4-imidazolyl)ethylamino-carbonyl-bicyclo-(2.2.1)heptan-1-yl)methanesulfonyl)-4-(2-methylphenyl)piperazine]: 35 nM.

The same test, now with this note: read-out: % inhibition at 100 nM.
Take `Cc1ccccc1N1CCN(S(=O)(=O)C[C@]23CC[C@H](CC2=CCN)C3(C)C)CC1` [Example 52, 1-((7,7-dimethyl-2-(2-amino)ethylidine-bicyclo-(2.2.1)heptan-1-yl)methanesulfonyl)-4-(2-methyl-phenyl)piperazine]: the inhibition at 0.1 µM amounted to 36%.
On the same count and under the same terms, with `Cc1ccccc1N1CCN(S(=O)(=O)CC23CCC(CC2C(=O)O)C3(C)C)CC1` (stereo not drawn) [Example 60, 1-((7,7-Dimethyl-2-endo-carboxy-bicyclo(2.2.1)heptan-1-yl)methanesulfonyl)-4-(2-methylphenyl)piperazine] the figure was 34%; with `COC(=O)C1CC(=O)N(CC(C)C2(O)CC3CCC2(CS(=O)(=O)N2CCN(c4ccccc4C)CC2)C3(C)C)C1` (stereo not drawn) [Example 62, 1-((7,7-dimethyl-2-exo-hydroxy-2-endo-2-(1-(3-methoxycarbonyl)-2-pyrrolidinon-1-yl)propylbicyclo-(2.2.1)heptan-1-yl)methanesulfonyl)-4-(2-methylphenyl)piperazine], 37%.

The same test, now with this note: read-out: % inhibition at 1000 nM.
As for `Cc1ccccc1N1CCN(S(=O)(=O)C[C@]23CC[C@H](CC2=CCN=[N+]=[N-])C3(C)C)CC1` [Example 51, 1-((7,7-dimethyl-2-(2-azido)ethylidine-bicyclo-(2.2.1)heptan-1-yl)methanesulfonyl)-4-(2-methyl-phenyl)piperazine], the inhibition at 1 µM came out at 64%.
As to `Cc1ccccc1N1CCN(S(=O)(=O)C[C@]23CC[C@H](CC2=CCNC(=O)Cc2c[nH]cn2)C3(C)C)CC1` [Example 53, 1-((7,7-dimethyl-2-(2-(4(5)-imidazolylacetyl)amino)-ethylidine-bicyclo(2.2.1)heptan-1-yl)methane-sulfonyl)-4-(2-methylphenyl)piperazine], the inhibition at 1 µM was found to be 75%.
Same read-out and setting: with `Cc1ccccc1N1CCN(S(=O)(=O)C[C@]23CC[C@H](C[C@]2(O)CNCC(C)C)C3(C)C)CC1` [Example 55, 1-((7,7-Dimethyl-2-exo-hydroxy-2-endo-isobutylamino-methylbicyclo(2.2.1)heptan-1-yl)methanesulfonyl)-4-(2-methylphenyl)piperazine] the figure was 72%.
The same measure, in the same setting: with `COC(=O)C1=C[C@H]2CC[C@]1(CS(=O)(=O)N1CCN(c3ccccc3C)CC1)C2(C)C` [Example 56, 1-((7,7-Dimethyl-2-methoxycarbonyl-bicyclo(2.2.1)hept-2-en-1-yl)methanesulfonyl)-4-(2-methylphenyl)-piperazine] the figure was 38%; with `Cc1ccccc1N1CCN(S(=O)(=O)C[C@]23CC[C@H](C=C2C(=O)O)C3(C)C)CC1` [Example 57, 1-((7,7-Dimethyl-2-carboxy-bicyclo(2.2.1)hept-2-en-1-yl)methanesulfonyl)-4-(2-methylphenyl)piperazine], 78%.

In general, IC50 refers to the concentration at which inhibition is half-maximal. The term inhibition denotes how much of the control response was suppressed.
